Measured values reported in PMC8022858, “Discovery of bone morphogenetic protein 7-derived peptide sequences that attenuate the human osteoarthritic chondrocyte phenotype” (Molecular Therapy. Methods & Clinical Development, 2021).

Legend:
[1] = test system: human OA cartilage explants; assay: PGE2 levels in culture supernatant of cartilage explants; format: cell-based; conditions: n = 5 donors, 24 h, relative to control (Figure 6D)
Description: Figure 6 Peptide p[63−82] activity on OA knee joint tissues Human OA knee joint tissues were cultured for 24 h in the presence of BMP7, peptide p[63−82], or the scrambled version of peptide p[63−82] and compared to control conditions. (A) Cartilage tissues (n = 7 individual donors) were exposed to shown conditions and analyzed for COL2A1, COL10A1, and COX-2 mRNA expression by quantitative real-time PCR (normalized for 28S rRNA expression and relative to control conditions). (B) GAG release in medium from cartilage tissues (n = 5 individual donors) was determined, and data were calculated relative to the control condition. (C) PGE2 levels in culture supernatant from synovium (n = 5 donors). (D) PGE2 levels in culture supernatant from cartilage tissues from (B) (n = 5 donors). (E) PGE2 levels in culture supernatant from IPFP (n = 5 donors). (F) PGE2 levels in culture supernatant from the meniscus. Synovium, IPFP, and meniscus tissues were from the same 5 donors as the cartilage tissues in (B) and (C). PGE2 levels in conditions were calculated relative to controls for each donor. In graphs, error bars represent mean ± SEM; data are presented relative to the control condition for each time point. Statistical differences (unpaired two-tailed Student’s t test) were calculated to control condition: ∗p < 0.05, ∗∗p < 0.01, and ∗∗∗p < 0.001. […]

[2] = test system: human OA knee cartilage explants; assay: Gene expression in OA cartilage explants; format: cell-based; conditions: n = 7 donors, 24 h, normalized to 28S rRNA, relative to control; BMP7 1 nM (Figure 6A)
Description: To determine whether peptide p[63−82] has the potency to alter chondrocyte behavior in cartilage tissue, rather than isolated HACs, cartilage biopsies from OA knees were cultured in the presence of peptide p[63−82], alongside its scrambled version and full-length BMP7.
Figure 6 Peptide p[63−82] activity on OA knee joint tissues Human OA knee joint tissues were cultured for 24 h in the presence of BMP7, peptide p[63−82], or the scrambled version of peptide p[63−82] and compared to control conditions. (A) Cartilage tissues (n = 7 individual donors) were exposed to shown conditions and analyzed for COL2A1, COL10A1, and COX-2 mRNA expression by quantitative real-time PCR (normalized for 28S rRNA expression and relative to control conditions). (B) GAG release in medium from cartilage tissues (n = 5 individual donors) was determined, and data were calculated relative to the control condition. (C) PGE2 levels in culture supernatant from synovium (n = 5 donors). (D) PGE2 levels in culture supernatant from cartilage tissues from (B) (n = 5 donors). (E) PGE2 levels in culture supernatant from IPFP (n = 5 donors). (F) PGE2 levels in culture supernatant from the meniscus. Synovium, IPFP, and meniscus tissues were from the same 5 donors as the cartilage tissues in (B) and (C). PGE2 levels in conditions were calculated relative to controls for each donor. […] Statistical differences (unpaired two-tailed Student’s t test) were calculated to control condition: ∗p < 0.05, ∗∗p < 0.01, and ∗∗∗p < 0.001.
Cartilage was obtained from total knee arthroplasty of end-stage (K&L grades 3−4) OA patients and from resected knee cartilage from cartilage repair procedures of non-OA patients. […] The bioluminescent readout was performed by lysing cells in Passive Lysis Buffer (Promega) and measuring luciferase activity using the Berthold TriStar^2 LB 942 Modular Multimode Microplate Reader using the Luciferase Assay System for firefly luciferase (BRE and CAGA12) (Promega) and the Gaussia Luciferase Kit (New England Biolabs). […]

Row | Substance | PGE2 levels from cartilage explants [1] | COL2A1, COL10A1, and COX-2 mRNA expression in cartilage explants [2]
1 | BMP7: full-length recombinant bone morphogenetic protein 7 (R&D Systems), used at 1 nM | reduced | comparable
2 | H-AAYYSEGESAFPLNSYMNAT-OH [p[63−82]] | reduced | induce COL2A1 while inhibiting COL10A1 and COX-2 expression
3 | H-SEASPAMYYLNATANFYESG-OH [scrambled p[63−82], scrambled version of peptide p[63−82], reference compound] | – | lacked this activity
